Measured values as given in patent publication US20260234139A1, “PGDH INHIBITORS AND METHODS OF MAKING AND USING” (Epirium Bio Inc., priority 2023, published 2026).

Experiments:
15-PGDH/HPGD = target: T1, 15-PGDH/HPGD (Homo sapiens, UniProt P15428); assay: hPGDH inhibitor screening biochemical assay; conditions: 10 nM enzyme, 15 μM Prostaglandin E2, 0.25 mM NAD, fluorescence ex/em 340/485 nm
T1 construct: purchased R&D System 5660-DH
T1 sequence (P15428 1-266): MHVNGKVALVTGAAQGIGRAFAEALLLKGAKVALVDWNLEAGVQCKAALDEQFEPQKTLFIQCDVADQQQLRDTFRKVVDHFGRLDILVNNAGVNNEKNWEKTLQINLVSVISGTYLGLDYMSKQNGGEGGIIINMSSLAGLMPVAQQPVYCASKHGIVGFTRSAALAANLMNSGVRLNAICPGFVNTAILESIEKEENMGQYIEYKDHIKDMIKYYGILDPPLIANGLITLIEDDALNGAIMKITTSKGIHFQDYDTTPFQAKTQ
Method: A hydroxyprostaglandin dehydrogenase inhibition screening biochemical assay can be performed to assess the synthesized inhibitors provided herein. Provided herein is an exemplary biochemical assay for hPGDH inhibitor screening.
The in vitro biochemical assay can be performed in white, 384 plates in total 20 μl reaction volume consisting of 10 nM of 15-PGDH/HPGD (R&D System #5660-DH), 15 μM Prostaglandin E2 (Sigma, Cat #P5640-10 MG) and 0.25 mM B-Nicotinamide adenine dinucleotide sodium salt (Sigma, Cat #N0632-5G) made in reaction buffer (50 mM Tris-HCl, pH 7.5, 0.01% Tween 20) at 10-point dose response curve for test/tool compounds. Briefly, 5 μl (4×) of compounds solution and 5 μl (final concentration, 10 nM) of enzyme solution is added to white 384 well plates and incubated for 10 mins at 37° C. 5 μl (4×) of Prostaglandin E2 and 5 μl (4×) of β-Nicotinamide adenine dinucleotide sodium salt is added to the wells and incubated for 10 mins at room temperature. Fluorescence is recorded at ex/em=340 nm/485 nm.

A549 = A549 EC50 (cell assay, method not described); assay type: cell-based

SMILES | IC50 (15-PGDH/HPGD) [nM] | EC50 (A549; Homo sapiens, A549, A549) [nM] | EC50 (A549; A549) [nM]
COCC[C@H](O)c1cnc2c(cnn2-c2cccc(-c3nnc[nH]3)c2)c1 [Compound 36B] | < 100 | 100 to 1000 | 
O=C(O)CCc1ccc(-n2ncc3cc([C@@H](O)COC4CCCC4)cnc32)cc1F [Compound 88A] | 100 to 1000 | ≥ 1000 | 
CCOC1([C@H](O)c2cnc3c(cnn3-c3ccc4nc(N5CCOCC5)nn4c3)c2)CC1 [Compound 62A] | ≥ 1000 | ≥ 1000 | 
C[S+]([O-])c1ccc(-n2ncc3cc([C@H](O)COC4CCC4)cnc32)cc1 (some centres unmarked) [Compound 124B] | ≥ 1000 | ≥ 1000 | 
O[C@@H](COC1CCC1)c1cnc2c(cnn2-c2cccc(-c3nnc[nH]3)c2)c1 [Compound 24A] | < 100 | 100 to 1000 | 
CC(C)OC[C@@H](O)c1cnc2c(ccn2-c2ccc(C(=O)O)cc2)n1 [Compound 49B] | < 100 | 100 to 1000 | 
C[C@@H](OC1CCC1)[C@@H](O)c1cnc2c(cnn2-c2ccc(C(=O)O)cc2)c1 [Compound 108B] | 100 to 1000 | 100 to 1000 | 
O=C(O)c1ccc(-n2ncc3cc([C@@H](O)COC4CCC4)cnc32)cc1F [Compound 94A] | < 100 | < 100 | 
O=C(O)c1ccc(-n2ncc3cc([C@H](O)COC4CCC4)cnc32)cc1F [Compound 94B] | < 100 | ≥ 1000 | 
Cc1cc(-n2ncc3cc([C@@H](O)COC4CCC4)cnc32)ccc1C(=O)O [Compound 95A] | < 100 | < 100 | 
CC(C)OCC(O)c1cnc2c(cnn2-c2cccc(-c3nnc[nH]3)c2)c1 (single isomer, unassigned) [Compound 18A] | < 100 |  | < 100
Cc1nn(-c2ccc(C(=O)O)cc2)c2ncc([C@H](O)COC3CCC3)cc12 [Compound 109B] | < 100 | < 100 | 
O[C@H](c1cnc2c(cnn2-c2cccc(-c3nnc[nH]3)c2)c1)[C@H]1CCOC1 [Compound 68B] | < 100 | < 100 | 
CC(C)NC[C@H](O)c1cnc2c(cnn2-c2cccc(-c3nnc[nH]3)c2)c1 [Compound 27A, (R)-1-(1-(3-(4H-1,2,4-triazol-3-yl)phenyl)-1H-pyrazolo[3,4-b]pyridin-5-yl)-2-(isopropylamino) ethan-1-ol] | ≥ 1000 | ≥ 1000 | 
CCCC(F)(F)[C@H](O)c1cnc2c(ccn2-c2cccc(-c3nnc[nH]3)c2)c1 [Compound 4B] | < 100 | < 100 | 
O[C@H](c1cnc2c(cnn2-c2cccc(-c3nnc[nH]3)c2)c1)[C@@H]1CCOC1 [Compound 68D] | < 100 | 100 to 1000 | 
CC1(C)CC(OC[C@@H](O)c2cnc3c(cnn3-c3ccc(C(=O)O)nc3)c2)C1 [Compound 116B] | < 100 | ≥ 1000 | 
Cc1cc(-n2ncc3cc([C@H](O)COC4CCC4)cnc32)ccc1C(=O)O [Compound 95B] | 100 to 1000 | ≥ 1000 | 
CNC(=O)c1ccc(-n2ncc3cc([C@H](O)COC(C)C)cnc32)cc1 [Compound 67A] | < 100 | < 100 | 
C[C@H]1C[C@@H](OC[C@H](O)c2cnc3c(cnn3-c3ccc(C(=O)O)cc3)c2)C1 [Compound 127A] | < 100 | ≥ 1000 | 

Further lines, results first:

IC50 (15-PGDH/HPGD) [nM] | EC50 (A549; Homo sapiens, A549, A549) [nM] | EC50 (A549; A549) [nM] | SMILES
< 100 | 100 to 1000 |  | CC(C)C[C@H](O)[C@H](O)c1cnc2c(ccn2-c2cccc(-c3nnc[nH]3)c2)c1 [Compound 3C, (1R,2S)-4-methyl-1-[1-[3-(4H-1,2,4-triazol-3-yl)phenyl]pyrrolo[2,3-b]pyridin-5-yl]pentane-1,2-diol]
≥ 1000 | ≥ 1000 |  | CCOC1([C@@H](O)c2cnc3c(cnn3-c3ccc(C(=O)O)cc3)c2)CCC1 [Compound 85B]
< 100 | 100 to 1000 |  | CCOC1([C@@H](O)c2cnc3c(cnn3-c3ccc(C(=O)O)cc3)c2)CC1 [Compound 58B]
< 100 | < 100 |  | CC(C)(C)OC[C@@H](O)c1cnc2c(ccn2-c2cccc(-c3nnc[nH]3)c2)c1 [Compound 31B]
≥ 1000 | 100 to 1000 |  | CC(C)OC[C@H](O)c1cnc2c(cnn2-c2ccc3nc(N4CCOCC4)nn3c2)c1 [Compound 60B]
≥ 1000 | ≥ 1000 |  | CSc1cccc(-n2ncc3cc([C@H](O)COC4CCC4)cnc32)c1 [Compound 122B]
< 100 | 100 to 1000 |  | CC(C)OC[C@@H](O)c1cnc2c(cnn2-c2ccc(OCC(=O)O)c(F)c2)c1 [Compound 74A]
< 100 | < 100 |  | CC1(OC[C@@H](O)c2cnc3c(cnn3-c3ccc(C(=O)O)cc3)c2)CC1 [Compound 92B]
< 100 | < 100 |  | O[C@H](COC1CCC1)c1cnc2c(cnn2-c2cncc(-c3nnc[nH]3)c2)c1 [Compound 117B]
100 to 1000 | ≥ 1000 |  | CCOC1([C@H](O)c2cnc3c(cnn3-c3ccc(C(=O)O)cc3)c2)CCC1 [Compound 85A]
< 100 | 100 to 1000 |  | O[C@H](c1cnc2c(cnn2-c2cccc(-c3nnc[nH]3)c2)c1)C1CCOCC1 [Compound 52A]
< 100 | < 100 |  | O[C@H](COC1CCC1)c1cnc2c(cnn2-c2cccc(-c3nnc[nH]3)c2)c1 [Compound 24B]
< 100 | 100 to 1000 |  | O=C(O)c1ccc(-n2ncc3cc([C@@H](O)COC4CCC4)cnc32)cn1 [Compound 96B]
< 100 | ≥ 1000 |  | CC(C)OC[C@H](O)c1cnc2c(ccn2-c2ccc(C(=O)O)cc2)n1 [Compound 49A]
100 to 1000 | ≥ 1000 |  | CNC(=O)c1ccc(-n2ncc3cc([C@@H](O)COC4CCC4)cnc32)cc1 [Compound 84B]
< 100 | < 100 |  | O=C(O)c1ccc(-n2ccc3nc([C@H](O)C4CC(F)(F)C4)cnc32)cc1 [Compound 46A]
< 100 | < 100 |  | CNC(=O)c1ccc(-n2ncc3cc([C@H](O)COC4CCC4)cnc32)cc1 [Compound 84A]
100 to 1000 | 100 to 1000 |  | C[S+]([O-])c1cccc(-n2ncc3cc([C@@H](O)COC4CCC4)cnc32)c1 (some centres unmarked) [Compound 125A]
100 to 1000 | 100 to 1000 |  | O=C(O)[C@@H]1CCN(c2ccc(-n3ncc4cc([C@H](O)COC5CCC5)cnc43)cc2)C1 [Compound 87B]
< 100 | < 100 |  | CCCC[C@H](O)c1cnc2c(ccn2-c2cccc(-c3nnc[nH]3)c2)n1 [Compound 2A]
< 100 | 100 to 1000 |  | O[C@H](c1cnc2c(cnn2-c2cccc(-c3nnc[nH]3)c2)c1)C1COC1 [Compound 28B]
< 100 | ≥ 1000 |  | CSc1cccc(-n2ncc3cc([C@@H](O)COC4CCC4)cnc32)c1 [Compound 122A]
≥ 1000 | ≥ 1000 |  | O[C@@H](c1cnc2c(cnn2-c2cccc(-c3nnc[nH]3)c2)c1)C1(OCC(F)F)CC1 [Compound 73B]
100 to 1000 | ≥ 1000 |  | CCOC1([C@@H](O)c2cnc3c(cnn3-c3cccc(-c4nnc[nH]4)c3)c2)CCC1 [Compound 83B]
100 to 1000 | 100 to 1000 |  | O[C@@H](c1cnc2c(cnn2-c2cccc(-c3nnc[nH]3)c2)c1)C1C2CCCCC21 (some centres unmarked) [Compound 51B]
< 100 | 100 to 1000 |  | CC(C)OCC[C@H](O)c1cnc2c(cnn2-c2cccc(-c3nnc[nH]3)c2)c1 [Compound 44B]
